Legend:
[1] = at pH 4.8; cited from earlier work
[2] = intestinal pH reduced from pH 8 to pH 5; cited from earlier work
[3] = for mean time to peak disliking / mean peak disliking effect (Emin), VAS: 480 mg oral tablet, after high-fat breakfast; for mean time to peak disliking: high responders; for mean peak disliking effect (Emin), VAS: high responders (six subjects)
Description: A total of 49 subjects were enrolled. […] As identified in the randomization schedule for each subject, subjects took each dose of study drug immediately following a standardized high-fat breakfast.
During the study, each subject completed a 100 point Visual Analog Scale (VAS) “Like/Dislike” Rating Scale at dosing and for up to 6 hours post-dosing where subjects were asked “Do you like or dislike the drug effect you are feeling now?”

[4] = in the presence of food, VAS over 6 hours

SMILES | fraction non-ionized [1] [%] | enhancement of intestinal uptake [2] | mean time to peak disliking [3] [h] | mean peak disliking effect (Emin), VAS [3] [mm] | high responder subjects (of six) with lower VAS scores than with standard niacin ([3]; 480 mg, fed, six high responders) | faster time to peak disliking than standard particle size niacin [3, 4] [%] | more substantial disliking effect than standard particle size niacin [3, 4] [%]
O=C(O)c1cccnc1 [niacin] | 50 | approximately five fold | – | – | – | – | –
O=C(O)c1cccnc1 [standard niacin, niacin, reference compound] | – | – | 3.0 | −15.3 | – | – | –
O=C(O)c1cccnc1 [micronized niacin, niacin] | – | – | 2.25 | −28.7 | five | 25 | 89

From patent US20120039957A1 (ACURA PHARMACEUTICALS, INC., priority 2010, published 2012)
